Source: patent publication US9469650B2, “Melampomagnolide B derivatives” (BOARD OF TRUSTEES OF THE UNIVERSITY OF ARKANSAS, priority 2013, dated 2016)
Where two headings read alike, the source gives them in different places.

What was measured:
T-47D = test: panel of 60 human tumor cell lines, growth inhibition (Breast Cancer); conditions: T-47D
SF-295 = test: panel of 60 human tumor cell lines, growth inhibition (CNS Cancer); conditions: SF-295
ACHN = test: panel of 60 human tumor cell lines, growth inhibition (Renal Cancer)
SNB-75 = test: panel of 60 human tumor cell lines, growth inhibition (CNS Cancer); conditions: SNB-75
HCC-2998 = test: panel of 60 human tumor cell lines, growth inhibition (Colon Cancer); conditions: HCC-2998
LOX IMVI = test: panel of 60 human tumor cell lines, growth inhibition (Melanoma)
CAKI-1 = test: panel of 60 human tumor cell lines, growth inhibition (Renal Cancer); conditions: CAKI-1
SR = test: panel of 60 human tumor cell lines, growth inhibition (Leukemia)
SF-268 = test: panel of 60 human tumor cell lines, growth inhibition (CNS Cancer); conditions: SF-268

C=C1C(=O)O[C@H]2[C@H]1CC/C(COC(=O)NCCO)=C\CC[C@@]1(C)O[C@@H]21 [JVM 2-50]
Percent Growth (T-47D; Log10 Concentration −4.0): −54% | Percent Growth (T-47D; Log10 Concentration −5.0): 16% | Percent Growth (T-47D; Log10 Concentration −6.0): 69% | Percent Growth (T-47D; Log10 Concentration −7.0): 95% | Percent Growth (T-47D; Log10 Concentration −8.0): 89% | GI50 (T-47D; NCI five dose): 3.46 µM | TGI (T-47D; NCI five dose): 1.71E−5 | Percent Growth (SF-295; Log10 Concentration −4.0): 44% | Percent Growth (SF-295; Log10 Concentration −5.0): 92% | Percent Growth (SF-295; Log10 Concentration −6.0): 95% | Percent Growth (SF-295; Log10 Concentration −7.0): 90% | Percent Growth (SF-295; Log10 Concentration −8.0): 88% | GI50 (SF-295; NCI five dose): 73.7 µM | TGI (SF-295; NCI five dose): 1.06E−4 | Percent Growth (ACHN; Log10 Concentration −4.0): 84% | Percent Growth (ACHN; Log10 Concentration −5.0): 43% | Percent Growth (ACHN; Log10 Concentration −6.0): 99% | Percent Growth (ACHN; Log10 Concentration −7.0): 101% | Percent Growth (ACHN; Log10 Concentration −8.0): 96% | GI50 (ACHN; NCI five dose): 7.44 µM | TGI (ACHN; NCI five dose): 2.52E−5 | Percent Growth (SNB-75; Log10 Concentration −4.0): −20% | Percent Growth (SNB-75; Log10 Concentration −5.0): 68% | Percent Growth (SNB-75; Log10 Concentration −6.0): 79% | Percent Growth (SNB-75; Log10 Concentration −7.0): 79% | Percent Growth (SNB-75; Log10 Concentration −8.0): 70% | GI50 (SNB-75; NCI five dose): 16 µM | TGI (SNB-75; NCI five dose): 5.92E−5 | Percent Growth (HCC-2998; Log10 Concentration −4.0): −70% | Percent Growth (HCC-2998; Log10 Concentration −5.0): 105% | Percent Growth (HCC-2998; Log10 Concentration −6.0): 136% | Percent Growth (HCC-2998; Log10 Concentration −7.0): 106% | Percent Growth (HCC-2998; Log10 Concentration −8.0): 98% | GI50 (HCC-2998; NCI five dose): 20.6 µM | TGI (HCC-2998; NCI five dose): 3.99E−5 | Percent Growth (LOX IMVI; Log10 Concentration −4.0): −88% | Percent Growth (LOX IMVI; Log10 Concentration −5.0): 67% | Percent Growth (LOX IMVI; Log10 Concentration −6.0): 98% | Percent Growth (LOX IMVI; Log10 Concentration −7.0): 102% | Percent Growth (LOX IMVI; Log10 Concentration −8.0): 100% | GI50 (LOX IMVI; NCI five dose): 12.9 µM | TGI (LOX IMVI; NCI five dose): 2.72E−5 | Percent Growth (CAKI-1; Log10 Concentration −4.0): −65% | Percent Growth (CAKI-1; Log10 Concentration −5.0): 48% | Percent Growth (CAKI-1; Log10 Concentration −6.0): 87% | Percent Growth (CAKI-1; Log10 Concentration −7.0): 91% | Percent Growth (CAKI-1; Log10 Concentration −8.0): 89% | GI50 (CAKI-1; NCI five dose): 8.99 µM | TGI (CAKI-1; NCI five dose): 2.67E−5 | Percent Growth (HL-60(TB); Log10 Concentration −4.0): −48% | Percent Growth (HL-60(TB); Log10 Concentration −5.0): 9% | Percent Growth (HL-60(TB); Log10 Concentration −6.0): 111% | Percent Growth (HL-60(TB); Log10 Concentration −7.0): 109% | Percent Growth (HL-60(TB); Log10 Concentration −8.0): 106% | GI50 (HL-60(TB); NCI five dose): 3.99 µM | CC50 (HL-60(TB); read-out: LC50, NCI five dose): > 100 µM | Percent Growth (SR; Log10 Concentration −4.0): −30% | Percent Growth (SR; Log10 Concentration −5.0): 18% | Percent Growth (SR; Log10 Concentration −6.0): 91% | Percent Growth (SR; Log10 Concentration −7.0): 100% | Percent Growth (SR; Log10 Concentration −8.0): 100% | GI50 (SR; NCI five dose): 3.67 µM | Percent Growth (SF-268; Log10 Concentration −4.0): −51% | Percent Growth (SF-268; Log10 Concentration −5.0): 90% | Percent Growth (SF-268; Log10 Concentration −6.0): 100%
